Calls of active or inactive are those of the source. The calls are words filed in the database; no cut-off is given here.
Legend:
NB-4 [1] = assay: Cell cycle arrest in human NB4 cells assessed as accumulation of cells at G0/G1 phase at 0.5 uM incubated for 24 hrs by DAPI staining based flow cytometric analysis (reference value: 48 %); assay type: functional
NB-4 [2] = assay: Cell cycle arrest in human NB4 cells assessed as accumulation of cells at S phase at 0.5 uM incubated for 24 hrs by DAPI staining based flow cytometric analysis (reference value: 26 %); assay type: functional
NB-4 [3] = assay: Cell cycle arrest in human NB4 cells assessed as accumulation of cells at G2/M phase at 0.5 uM incubated for 24 hrs by DAPI staining based flow cytometric analysis (reference value: 23 %); assay type: functional
NB-4 [4] = assay: Cell cycle arrest in human NB4 cells assessed as accumulation of cells at G2/M phase at 1 uM incubated for 24 hrs by DAPI staining based flow cytometric analysis (reference value: 23 %); assay type: functional
NB-4 [5] = assay: Cell cycle arrest in human NB4 cells assessed as accumulation of cells at G0/G1 phase at 2 uM incubated for 24 hrs by DAPI staining based flow cytometric analysis (reference value: 48 %); assay type: functional
NB-4 [6] = assay: Cell cycle arrest in human NB4 cells assessed as accumulation of cells at G2/M phase at 2 uM incubated for 24 hrs by DAPI staining based flow cytometric analysis (reference value: 23 %); assay type: functional
[7] = Cell cycle arrest in human ATRA-resistant NB4-LR2 cells assessed as accumulation of cells at S phase at 0.5 uM incubated for 24 hrs by DAPI staining based flow cytometric analysis (reference value: 21 %); assay type: functional
[8] = Cell cycle arrest in human ATRA-resistant NB4-LR2 cells assessed as accumulation of cells at S phase at 2 uM incubated for 24 hrs by DAPI staining based flow cytometric analysis (reference value: 21 %); assay type: functional
NB-4 [9] = assay: Cell cycle arrest in human NB4 cells assessed as accumulation of cells at S phase at 2 uM incubated for 3 hrs by DAPI staining based flow cytometric analysis (reference value: 20 %); assay type: functional
NB-4 [10] = assay: Cell cycle arrest in human NB4 cells assessed as accumulation of cells at G2/M phase at 2 uM incubated for 12 hrs by DAPI staining based flow cytometric analysis (reference value: 21 %); assay type: functional
[11] = target: T1, Retinoic acid receptor alpha (Homo sapiens, UniProt P10276); assay: Binding affinity to N-terminal His-tagged human RARalpha LBD extracted from Escherichia coli BL21 (DE3) cells assessed as dissociation constant by ITC analysis
T1 sequence (P10276 whole entry): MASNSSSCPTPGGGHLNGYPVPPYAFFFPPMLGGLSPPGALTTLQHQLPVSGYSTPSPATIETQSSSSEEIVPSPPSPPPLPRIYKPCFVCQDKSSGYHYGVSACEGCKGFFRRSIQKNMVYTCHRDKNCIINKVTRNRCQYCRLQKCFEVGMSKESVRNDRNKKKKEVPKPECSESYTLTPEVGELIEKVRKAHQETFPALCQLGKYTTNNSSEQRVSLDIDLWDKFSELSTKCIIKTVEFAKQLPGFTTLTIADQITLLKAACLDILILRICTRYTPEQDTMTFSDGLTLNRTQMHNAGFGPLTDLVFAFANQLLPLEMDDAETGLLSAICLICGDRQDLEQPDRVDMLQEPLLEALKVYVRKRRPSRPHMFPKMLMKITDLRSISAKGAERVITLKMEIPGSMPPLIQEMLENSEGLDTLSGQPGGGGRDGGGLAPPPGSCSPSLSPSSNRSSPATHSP

Homo sapiens = organism: Homo sapiens; assay: Binding affinity to N-terminal His-tagged human RARalpha LBD R276E mutant extracted from Escherichia coli BL21 (DE3) cells by ITC analysis
[12] = Cell cycle arrest in human ATRA-resistant NB4-LR2 cells assessed as accumulation of cells at G0/G1 phase at 2 uM incubated for 6 hrs by DAPI staining based flow cytometric analysis (reference value: 57 %); assay type: functional
[13] = Cell cycle arrest in human ATRA-resistant NB4-LR2 cells assessed as accumulation of cells at sub-G1 phase at 2 uM incubated for 6 hrs by DAPI staining based flow cytometric analysis (reference value: 9 %); assay type: functional
[14] = Cell cycle arrest in human ATRA-resistant NB4-LR2 cells assessed as accumulation of cells at G2/M phase at 2 uM incubated for 12 hrs by DAPI staining based flow cytometric analysis (reference value: 15 %); assay type: functional
NB-4 [15] = assay: Cell cycle arrest in human NB4 cells transfected with pLVX-shRNA2-negative control assessed as accumulation of cells at S phase at 1 uM incubated for 12 hrs by DAPI staining based flow cytometric analysis (reference value: 26 %); assay type: functional
NB-4 [16] = assay: Cell cycle arrest in human NB4 cells transfected with pLVX-shRNA2-negative control assessed as accumulation of cells at sub-G1 phase at 1 uM incubated for 12 hrs by DAPI staining based flow cytometric analysis (reference value: 4 %); assay type: functional
NB-4 [17] = assay: Cell cycle arrest in human NB4 cells transfected with pLVX-shRXRalpha plasmid assessed as accumulation of cells at sub-G1 phase at 1 uM incubated for 12 hrs by DAPI staining based flow cytometric analysis (reference value: 10 %); assay type: functional
NB-4 [18] = assay: Cell cycle arrest in human NB4 cells transfected with pLVX-shRXRalpha plasmid assessed as accumulation of cells at G2/M phase at 2 uM incubated for 12 hrs by DAPI staining based flow cytometric analysis (reference value: 17 %); assay type: functional
NB-4 [19] = assay: Cell cycle arrest in human NB4 cells transfected with pLVX-shRXRalpha plasmid assessed as accumulation of cells at sub-G1 phase at 2 uM incubated for 12 hrs by DAPI staining based flow cytometric analysis (reference value: 10 %); assay type: functional
NB-4 [20] = assay: Cell cycle arrest in human NB4 cells transfected with pLVX-shPML-RARalpha plasmid assessed as accumulation of cells at G2/M phase at 1 uM incubated for 12 hrs by DAPI staining based flow cytometric analysis (reference value: 22 %); assay type: functional
NB-4 [21] = assay: Induction of apoptosis in human NB4 cells assessed as late apoptotic cells at 1 uM incubated for 24 hrs by Annexin V-FITC/PI staining based flow cytometric analysis (reference value: 2.23 %); assay type: functional
[22] = Induction of apoptosis in human ATRA-resistant NB4-LR2 cells assessed as late apoptotic cells at 1 uM incubated for 24 hrs by Annexin V-FITC/PI staining based flow cytometric analysis (reference value: 5.62 %); assay type: functional
NB-4 [23] = assay: Cell cycle arrest in human NB4 cells assessed as accumulation of cells at G2/M phase at 1 uM incubated for 12 hrs by DAPI staining based flow cytometric analysis (reference value: 26 %); assay type: functional
[24] = Cell cycle arrest in human ATRA-resistant NB4-LR2 cells assessed as accumulation of cells at G0/G1 phase at 1 uM incubated for 12 hrs by DAPI staining based flow cytometric analysis (reference value: 42 %); assay type: functional
NB-4 [25] = assay: Cell cycle arrest in human NB4 cells assessed as accumulation of cells at G0/G1 phase at low concentration by DAPI staining based flow cytometric analysis; assay type: functional
NB-4 [26] = assay: Cell cycle arrest in human NB4 cells assessed as accumulation of cells at G2/M phase at higher concentration by DAPI staining based flow cytometric analysis; assay type: functional

## Cc1cc2c(cc1C(=O)/C(Br)=C/c1ccc(C(=O)O)cc1)C(C)(C)CCC2(C)C
NB-4 [1]
  Activity: 59%
NB-4 [2]
  Activity: 10%
NB-4 [3]
  Activity: 26%
NB-4 [4]
  Activity: 45%
NB-4 [5]
  Activity: 35%
NB-4 [6]
  Activity: 37%
[7]
  Activity: 12%
[8]
  Activity: 22%
NB-4 [9]
  Activity: 21%
NB-4 [10]
  Activity: 62%
[11]
  Kd: 1080 nM
Homo sapiens
  Activity: inactive
[12]
  Activity: 45%
[13]
  Activity: 22%
[14]
  Activity: 22%
NB-4 [15]
  Activity: 8%
NB-4 [16]
  Activity: 7%
NB-4 [17]
  Activity: 11%
NB-4 [18]
  Activity: 26%
NB-4 [19]
  Activity: 12%
NB-4 [20]
  Activity: 27%
NB-4 [21]
  Activity: 18.68%
[22]
  Activity: 20.28%
NB-4 [23]
  Activity: 61%
[24]
  Activity: 10%

## Cc1cc2c(cc1C(=O)/C(Br)=C\c1ccc(C(=O)O)cc1)C(C)(C)CCC2(C)C
NB-4 [25]
  Activity: Active
NB-4 [26]
  Activity: Active
